Laboratory results taken from patent US12077503B2, “Substituted cyclic amides and their use as herbicides” (FMC CORPORATION, priority 2015, dated 2024).

What was measured:
Type in all cases: in vivo
[1] = tested on: velvetleaf (Abutilon theophrasti); experiment: Test G Pre-Emergence Protocol; conditions: Abutilon theophrasti, pre-emergence, 312 h, evaluated after 13 days; for pest or weed control at 15.625 g/ha: 15.625 g ai/ha; for pest or weed control at 15.625 g/ha / pest or weed control at 250 g/ha: read-out: Velvetleaf damage rating (100=total damage to plant; 0=no damage to plant); for pest or weed control at 62.5 g/ha: 62.5 g ai/ha, 100=total damage to plant, 0=no damage to plant, read-out: plant damage rating, Velvetleaf; for pest or weed control at 250 g/ha: 250 g ai/ha
Outline: (§1)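 Under a 24/16° C day/night regime with 14 h light and 65% humidity, sown pots were sprayed after one day with compound (15.625, 62.5 or 250 g/ha; 50:50 acetone/water, 0.5% Tween 20). Damage was assessed visually 13 days later, 0 to 100.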

[2] = tested on: barnyardgrass (Echinochloa crus-galli); experiment: Test G Pre-Emergence Protocol; conditions: Echinochloa crus-galli, pre-emergence, 312 h, evaluated after 13 days; for pest or weed control at 15.625 g/ha: 15.625 g ai/ha, read-out: Barnyard grass damage rating (100=total damage to plant; 0=no damage to plant); for pest or weed control at 62.5 g/ha: 62.5 g ai/ha, 100=total damage to plant, 0=no damage to plant, read-out: plant damage rating, Barnyardgrass; for pest or weed control at 250 g/ha: 250 g ai/ha, read-out: Barnyardgrass damage rating (100=total damage to plant; 0=no damage to plant)
Outline: as §1

[3] = tested on: corn (Zea mays); experiment: Test G Pre-Emergence Protocol; conditions: Zea mays, pre-emergence, 312 h, evaluated after 13 days; for plant injury at 15.625 g/ha: 15.625 g ai/ha; for plant injury at 15.625 g/ha / plant injury at 250 g/ha: read-out: Corn damage rating (100=total damage to plant; 0=no damage to plant); for plant injury at 62.5 g/ha: 62.5 g ai/ha, 100=total damage to plant, 0=no damage to plant, read-out: plant damage rating, Corn; for plant injury at 250 g/ha: 250 g ai/ha
Outline: as §1

[4] = tested on: giant foxtail (Setaria faberi); experiment: Test G Pre-Emergence Protocol; conditions: Setaria faberi, pre-emergence, 312 h, evaluated after 13 days; for pest or weed control at 15.625 g/ha: 15.625 g ai/ha; for pest or weed control at 15.625 g/ha / pest or weed control at 250 g/ha: read-out: Foxtail, Giant damage rating (100=total damage to plant; 0=no damage to plant); for pest or weed control at 62.5 g/ha: 62.5 g ai/ha, 100=total damage to plant, 0=no damage to plant, read-out: plant damage rating, Foxtail, Giant; for pest or weed control at 250 g/ha: 250 g ai/ha
Outline: as §1

[5] = tested on: redroot pigweed (Amaranthus retroflexus); experiment: Test G Pre-Emergence Protocol; conditions: Amaranthus retroflexus, pre-emergence, 312 h, evaluated after 13 days; for pest or weed control at 15.625 g/ha: 15.625 g ai/ha; for pest or weed control at 15.625 g/ha / pest or weed control at 250 g/ha: read-out: Pigweed, Redroot damage rating (100=total damage to plant; 0=no damage to plant); for pest or weed control at 62.5 g/ha: 62.5 g ai/ha, 100=total damage to plant, 0=no damage to plant, read-out: plant damage rating, Pigweed, Redroot; for pest or weed control at 250 g/ha: 250 g ai/ha
Outline: as §1

[6] = tested on: ivy-leaved morning glory (Ipomoea hederacea); experiment: Test G Pre-Emergence Protocol; conditions: Ipomoea, pre-emergence, 312 h, evaluated after 13 days; for pest or weed control at 15.625 g/ha: 15.625 g ai/ha, read-out: Morning-glory, Ivy-leaved damage rating (100=total damage to plant; 0=no damage to plant); for pest or weed control at 62.5 g/ha: 62.5 g ai/ha, 100=total damage to plant, 0=no damage to plant, read-out: plant damage rating, Morningglory, Ivy-leaved; for pest or weed control at 250 g/ha: 250 g ai/ha, read-out: Morningglory, Ivy-leaved damage rating (100=total damage to plant; 0=no damage to plant)
Outline: as §1

[7] = tested on: velvetleaf (Abutilon theophrasti); experiment: Test G Post-Emergence Protocol; conditions: Abutilon theophrasti, post-emergence, 312 h; for pest or weed control at 15.625 g/ha: 15.625 g ai/ha, evaluated after 13 days (100=total damage to plant; 0=no damage to plant), read-out: Velvetleaf damage rating; for pest or weed control at 62.5 g/ha: 62.5 g ai/ha, read-out: Velvetleaf damage rating (100=total damage to plant; 0=no damage to plant); for pest or weed control at 62.5 g/ha / pest or weed control at 250 g/ha: evaluated after 13 days; for pest or weed control at 250 g/ha: 250 g ai/ha, read-out: damage to plant, Velvetleaf (100=total damage to plant; 0=no damage to plant)
Outline: (§2)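 Damage was rated 13 days after treatment from 0 (none) to 100 (plant killed). Compound was applied as a spray at 15.625, 62.5 or 250 g/ha in 50:50 acetone/water containing 0.5% Tween 20, onto 8-day-old potted plants kept in a glasshouse (24/16 °C, 14 h light, 65% humidity).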

[8] = tested on: barnyardgrass (Echinochloa crus-galli); experiment: Test G Post-Emergence Protocol; conditions: Echinochloa crus-galli, post-emergence, 312 h; for pest or weed control at 15.625 g/ha: 15.625 g ai/ha, evaluated after 13 days (100=total damage to plant; 0=no damage to plant), read-out: Barnyardgrass damage rating; for pest or weed control at 62.5 g/ha: 62.5 g ai/ha, read-out: Barnyardgrass damage rating (100=total damage to plant; 0=no damage to plant); for pest or weed control at 62.5 g/ha / pest or weed control at 250 g/ha: evaluated after 13 days; for pest or weed control at 250 g/ha: 250 g ai/ha, read-out: damage to plant, Barnyardgrass (100=total damage to plant; 0=no damage to plant)
Outline: as §2

[9] = tested on: corn (Zea mays); experiment: Test G Post-Emergence Protocol; conditions: Zea mays, post-emergence, 312 h; for plant injury at 15.625 g/ha: 15.625 g ai/ha, evaluated after 13 days (100=total damage to plant; 0=no damage to plant), read-out: Corn damage rating; for plant injury at 62.5 g/ha: 62.5 g ai/ha, read-out: Corn damage rating (100=total damage to plant; 0=no damage to plant); for plant injury at 62.5 g/ha / plant injury at 250 g/ha: evaluated after 13 days; for plant injury at 250 g/ha: 250 g ai/ha, read-out: damage to plant, Corn (100=total damage to plant; 0=no damage to plant)
Outline: as §2

[10] = tested on: giant foxtail (Setaria faberi); experiment: Test G Post-Emergence Protocol; conditions: Setaria faberi, post-emergence, 312 h; for pest or weed control at 15.625 g/ha: 15.625 g ai/ha, evaluated after 13 days (100=total damage to plant; 0=no damage to plant), read-out: Foxtail, Giant damage rating; for pest or weed control at 62.5 g/ha: 62.5 g ai/ha, read-out: Foxtail, Giant damage rating (100=total damage to plant; 0=no damage to plant); for pest or weed control at 62.5 g/ha / pest or weed control at 250 g/ha: evaluated after 13 days; for pest or weed control at 250 g/ha: 250 g ai/ha, read-out: damage to plant, Foxtail, Giant (100=total damage to plant; 0=no damage to plant)
Outline: as §2

[11] = tested on: redroot pigweed (Amaranthus retroflexus); experiment: Test G Post-Emergence Protocol; conditions: Amaranthus retroflexus, post-emergence, 312 h; for pest or weed control at 15.625 g/ha: 15.625 g ai/ha, evaluated after 13 days (100=total damage to plant; 0=no damage to plant), read-out: Pigweed, Redroot damage rating; for pest or weed control at 62.5 g/ha: 62.5 g ai/ha, read-out: Pigweed, Redroot damage rating (100=total damage to plant; 0=no damage to plant); for pest or weed control at 62.5 g/ha / pest or weed control at 250 g/ha: evaluated after 13 days; for pest or weed control at 250 g/ha: 250 g ai/ha, read-out: damage to plant, Pigweed, Redroot (100=total damage to plant; 0=no damage to plant)
Outline: as §2

[12] = tested on: ivy-leaved morning glory (Ipomoea hederacea); experiment: Test G Post-Emergence Protocol; conditions: Ipomoea, post-emergence, 312 h; for pest or weed control at 15.625 g/ha: 15.625 g ai/ha, evaluated after 13 days (100=total damage to plant; 0=no damage to plant), read-out: Morningglory, Ivy-leaved damage rating; for pest or weed control at 62.5 g/ha: 62.5 g ai/ha, read-out: Morningglory, Ivy-leaved damage rating (100=total damage to plant; 0=no damage to plant); for pest or weed control at 62.5 g/ha / pest or weed control at 250 g/ha: evaluated after 13 days; for pest or weed control at 250 g/ha: 250 g ai/ha, read-out: damage to plant, Morningglory, Ivy-leaved (100=total damage to plant; 0=no damage to plant)
Outline: as §2

Row | SMILES | pest or weed control at 15.625 g/ha [1] [%] | pest or weed control at 62.5 g/ha [1] [%] | pest or weed control at 250 g/ha [1] [%] | pest or weed control at 15.625 g/ha [2] [%] | pest or weed control at 62.5 g/ha [2] [%] | pest or weed control at 250 g/ha [2] [%] | plant injury at 15.625 g/ha [3] [%] | plant injury at 62.5 g/ha [3] [%] | plant injury at 250 g/ha [3] [%] | pest or weed control at 15.625 g/ha [4] [%] | pest or weed control at 62.5 g/ha [4] [%] | pest or weed control at 250 g/ha [4] [%] | pest or weed control at 15.625 g/ha [5] [%] | pest or weed control at 62.5 g/ha [5] [%] | pest or weed control at 250 g/ha [5] [%] | pest or weed control at 15.625 g/ha [6] [%] | pest or weed control at 62.5 g/ha [6] [%] | pest or weed control at 250 g/ha [6] [%] | pest or weed control at 15.625 g/ha [7] [%] | pest or weed control at 62.5 g/ha [7] [%] | other results
1 | Cc1csc(NC(=O)[C@@H]2C(=O)N(C)C[C@H]2c2ccc(C(F)(F)F)cc2)c1C#N (racemic) [Compound 1576] | 0 | 0 | 0 | 30 | 70 | 90 | 0 | 0 | 20 | 30 | 70 | 70 | 0 | 0 | 20 | 0 | 0 | 0 | 0 | 0 | pest or weed control at 250 g/ha [7]: 10%; pest or weed control at 15.625 g/ha [8]: 10%; pest or weed control at 62.5 g/ha [8]: 60%; pest or weed control at 250 g/ha [8]: 70%; plant injury at 15.625 g/ha [9]: 0%; plant injury at 62.5 g/ha [9]: 20%; plant injury at 250 g/ha [9]: 10%; pest or weed control at 15.625 g/ha [10]: 30%; pest or weed control at 62.5 g/ha [10]: 40%; pest or weed control at 250 g/ha [10]: 70%; pest or weed control at 15.625 g/ha [11]: 0%; pest or weed control at 62.5 g/ha [11]: 0%; pest or weed control at 250 g/ha [11]: 0%; pest or weed control at 15.625 g/ha [12]: 0%; pest or weed control at 62.5 g/ha [12]: 20%; pest or weed control at 250 g/ha [12]: 20%
2 | CN1C[C@@H](c2ccc(C(F)(F)F)cc2)[C@H](C(=O)Nc2cccnn2)C1=O (racemic) [Compound 1577] | 0 | 0 | 0 | 0 | 0 | 0 | 0 | 0 | 0 | 0 | 0 | 0 | 0 | 0 | 0 | 0 | 0 | 0 | 0 | 0 | pest or weed control at 250 g/ha [7]: 0%; pest or weed control at 15.625 g/ha [8]: 0%; pest or weed control at 62.5 g/ha [8]: 0%; pest or weed control at 250 g/ha [8]: 0%; plant injury at 15.625 g/ha [9]: 0%; plant injury at 62.5 g/ha [9]: 0%; plant injury at 250 g/ha [9]: 0%; pest or weed control at 15.625 g/ha [10]: 0%; pest or weed control at 62.5 g/ha [10]: 0%; pest or weed control at 250 g/ha [10]: 0%; pest or weed control at 15.625 g/ha [11]: 0%; pest or weed control at 62.5 g/ha [11]: 0%; pest or weed control at 250 g/ha [11]: 0%; pest or weed control at 15.625 g/ha [12]: 0%; pest or weed control at 62.5 g/ha [12]: 0%; pest or weed control at 250 g/ha [12]: 0%
3 | Cc1cc(NC(=O)[C@@H]2C(=O)N(C)C[C@H]2c2ccc(C(F)(F)F)cc2)on1 (racemic) [Compound 1579] | 0 | 0 | 0 | 0 | 0 | 0 | 0 | 0 | 0 | 0 | 0 | 0 | 0 | 0 | 0 | 0 | 0 | 0 | 0 | 0 | pest or weed control at 250 g/ha [7]: 0%; pest or weed control at 15.625 g/ha [8]: 0%; pest or weed control at 62.5 g/ha [8]: 10%; pest or weed control at 250 g/ha [8]: 10%; plant injury at 15.625 g/ha [9]: 0%; plant injury at 62.5 g/ha [9]: 0%; plant injury at 250 g/ha [9]: 0%; pest or weed control at 15.625 g/ha [10]: 0%; pest or weed control at 62.5 g/ha [10]: 0%; pest or weed control at 250 g/ha [10]: 0%; pest or weed control at 15.625 g/ha [11]: 0%; pest or weed control at 62.5 g/ha [11]: 0%; pest or weed control at 250 g/ha [11]: 0%; pest or weed control at 15.625 g/ha [12]: 0%; pest or weed control at 62.5 g/ha [12]: 0%; pest or weed control at 250 g/ha [12]: 0%
